Literature values as cited in publication PMC5354814, “In silico and in vitro drug screening identifies new therapeutic approaches for Ewing sarcoma” (Oncotarget, 2016).
Like-named read-outs stand apart in the source and are kept apart here.

Settings: cited from earlier work; for grossly malformed fetuses: rabbits, days 6-18 of pregnancy

For `CC(=O)OC[C@H]1O[C@@H]([S-])[C@H](OC(C)=O)[C@@H](OC(C)=O)[C@@H]1OC(C)=O.CCP(CC)CC.[Au+]` [Auranofin, auranofin], the teratogenicity in rabbits (oral 0.5, 3 and 6 mg/kg/day) is given as “teratogenic potential”, the grossly malformed fetuses (0.5 mg/kg/day (low)) is given as 1.9% and the grossly malformed fetuses (3 mg/kg/day (middle)) is given as 4.7%. The grossly malformed fetuses (6 mg/kg/day (high)) was 15.5%.
